The values below come from patent US20170065564A1, “BIS-CYCLIC GUANIDINE COMPOUND COMPOSITIONS, METHODS OF USE AND TREATMENT THEREOF” (University of South Florida, priority 2014, published 2017).

Assay type in all cases: cell-based
Assay [1] has as its system Acinetobacter baumannii. Kind of assay: MIC micro broth dilution assay. Also on record: key to stacked score activity, 100/MIC, A: stacked score = 100/MIC. The note with it: A. baumannii. The procedure: (§1) For this study we used a representative panel of multi-drug resistant clinical ESKAPE pathogen isolates (Supplemental Table S6).^42 43 3a, 44 45 Gram-positive organisms were grown in tryptic soy broth media (TSB), whilst Gram-negative organisms were grown in lysogeny Broth (LB), as described by us previously. ^43 MIC and MBC determination assays.
(§2) Broth cultures of ESKAPE strains were grown overnight before being diluted 1 in 1,000 in fresh media. Sterile 96-well plates were loaded with culture and compounds (in DMF) were added at decreasing concentrations to equal a total volume of 200 μl per well. Care was taken to not add more than 2.0% DMF to any well. Plates were then incubated at 37° C., and MICs determined after 24 hours by visual inspection for a lack of turbidity in wells. All assays were performed in triplicate with identical results obtained. For both the scaffold ranking and positional scanning samples, relative broad-spectrum activity was determined via stacked scores: […]

Assay [2] relates to Staphylococcus aureus. Kind of assay: MIC micro broth dilution assay. Details: key to stacked score activity, 100/MIC, S: stacked score = 100/MIC. The settings on record: S. aureus. The procedure:
as §1, §2
In general terms: Broth dilution looks for growth in wells or tubes with falling amounts of substance.

In assay [3] the test system is Klebsiella pneumoniae. Kind of assay: MIC micro broth dilution assay. Details: key to stacked score activity, 100/MIC, K: stacked score = 100/MIC. The settings on record: K. pneumoniae. The procedure: as §1, §2
Assay [4] relates to Enterobacter cloacae. Kind of assay: MIC micro broth dilution assay. Details: key to stacked score activity, 100/MIC, E: stacked score = 100/MIC. The settings on record: E. cloacae. The protocol:
as §1, §2

Assay [5] has as its system Enterococcus faecium. Kind of assay: MIC micro broth dilution assay. Also on record: key to stacked score activity, 100/MIC, E: stacked score = 100/MIC. The settings on record: E. faecium. The procedure:
as §1, §2

Assay [6] relates to ESKAPE pathogens. Kind of assay: MIC micro broth dilution assay, statements and stacked scores over all ESKAPE pathogens. The settings on record: letters E,S,K,A,P,E = ESKAPE pathogens, — = none. The protocol:
as §1
as §2, with “The minimum inhibitory concentration (MIC) for the combinatorial libraries, deconvolved 2157 library, and individual compounds were determined as follows. Broth” for “Broth”

On to `CCCC[C@H]1CN(CCCC[C@H]2CNC(=N)N2CCc2cccc(C(F)(F)F)c2)C(=N)N1CCc1ccc(-c2ccccc2)cc1` [Compound 3], for which the “stacked score activity, 100/MIC, A” value in assay [1] was 25. Further, in assay [2], the “stacked score activity, 100/MIC, S” value stood at 33. Besides, the “stacked score activity, 100/MIC, K” value in assay [3] was determined as 25. Moreover, in assay [4], the “stacked score activity, 100/MIC, E” value is listed as 20. The “stacked score activity, 100/MIC, E” value in assay [5] amounted to 25. Besides, in assay [6], the “pathogens against which the compound showed activity at 4 ug/ml” value (“pathogens … at 4 ug/ml” below) was “ESKA”, the “pathogens against which the compound showed activity at 5 ug/ml” value (“pathogens … at 5 ug/ml” below) is recorded as “ESKAPE”, the “pathogens against which the compound showed activity at 10 ug/ml” value (from here on “pathogens … at 10 ug/ml”) is recorded as “ESKAPE” and the “pathogens against which the compound showed activity at 25 ug/ml” value (from here on “pathogens … at 25 ug/ml”) is on record as “ESKAPE”.

Consider `CCCCCCCN1C(=N)N(CCCC[C@H]2CNC(=N)N2CCc2cccc(C(F)(F)F)c2)C[C@H]1Cc1cccc2ccccc12` [Compound 4], for which the “stacked score activity, 100/MIC, A” value in assay [1] came out at 25. For the same molecule, the “stacked score activity, 100/MIC, S” value in assay [2] came to 25. Further, the “stacked score activity, 100/MIC, K” value in assay [3] worked out at 20. Besides, the “stacked score activity, 100/MIC, E” value in assay [4] turned out to be 20. In addition, in assay [5], the “stacked score activity, 100/MIC, E” value was 33. Moreover, in assay [6], the “pathogens … at 4 ug/ml” value is reported as “ESA”, the “pathogens … at 5 ug/ml” value was “ESKAE”, the “pathogens … at 10 ug/ml” value was “ESKAE” and the “pathogens … at 25 ug/ml” value is reported as “ESKAPE”.

For the molecule `N=C1NC[C@H](CCCCN2C[C@@H](Cc3cccc4ccccc34)N(CCc3ccc(-c4ccccc4)cc3)C2=N)N1CCc1cccc(C(F)(F)F)c1` [Compound 6], in assay [1], the “stacked score activity, 100/MIC, A” value was 20. Moreover, the “stacked score activity, 100/MIC, S” value in assay [2] is recorded as 20. Also, in assay [3], the “stacked score activity, 100/MIC, K” value came out at 20. Moreover, in assay [4], the “stacked score activity, 100/MIC, E” value is 20. Moreover, the “stacked score activity, 100/MIC, E” value in assay [5] was 10. Further, in assay [6], the “pathogens … at 5 ug/ml” value is listed as “SKAE”, the “pathogens … at 10 ug/ml” value is “ESKAE” and the “pathogens … at 25 ug/ml” value is recorded as “ESKAPE”.

As to `N=C1NC[C@H](CCCCN2C[C@H](CC3CCCCC3)N(CCCCC3CCCCC3)C2=N)N1CCc1cccc(C(F)(F)F)c1` [Compound 8], in assay [1], the “stacked score activity, 100/MIC, A” value was 20. In addition, the “stacked score activity, 100/MIC, S” value in assay [2] came out at 10. Moreover, the “stacked score activity, 100/MIC, K” value in assay [3] is given as 20. Further, the “stacked score activity, 100/MIC, E” value in assay [4] is reported as 20. Also, in assay [5], the “stacked score activity, 100/MIC, E” value is 20. Besides, in assay [6], the “pathogens … at 5 ug/ml” value is on record as “EKAPE”, the “pathogens … at 10 ug/ml” value is reported as “ESKAPE” and the “pathogens … at 25 ug/ml” value is given as “ESKAPE”.

As to `N=C1NC[C@H](CCCCN2C[C@H](CC3CCCCC3)N(CCc3ccc(-c4ccccc4)cc3)C2=N)N1CCc1cccc(C(F)(F)F)c1` [Compound 9], the “stacked score activity, 100/MIC, A” value in assay [1] was 20. Also, in assay [2], the “stacked score activity, 100/MIC, S” value is given as 20. Also, the “stacked score activity, 100/MIC, K” value in assay [3] is on record as 20. Moreover, in assay [4], the “stacked score activity, 100/MIC, E” value is listed as 20. Also, the “stacked score activity, 100/MIC, E” value in assay [5] was found to be 25. Further, in assay [6], the “pathogens … at 5 ug/ml” value was “ESKAPE”, the “pathogens … at 10 ug/ml” value is reported as “ESKAPE” and the “pathogens … at 25 ug/ml” value is “ESKAPE”.

Take `CCCCCCCN1C(=N)N(CCCC[C@H]2CNC(=N)N2CCCCC2CCCCC2)C[C@@H]1CCCC` [Compound 10]: the “stacked score activity, 100/MIC, A” value in assay [1] is 25. The “stacked score activity, 100/MIC, S” value in assay [2] was 25. Besides, in assay [3], the “stacked score activity, 100/MIC, K” value stood at 20. Besides, the “stacked score activity, 100/MIC, E” value in assay [4] came to 20. For the same molecule, the “stacked score activity, 100/MIC, E” value in assay [5] turned out to be 25. For the same molecule, in assay [6], the “pathogens … at 4 ug/ml” value was “ESAP”, the “pathogens … at 5 ug/ml” value is listed as “ESKAPE”, the “pathogens … at 10 ug/ml” value is “ESKAPE” and the “pathogens … at 25 ug/ml” value is on record as “ESKAPE”.

As to `CCCC[C@H]1CN(CCCC[C@H]2CNC(=N)N2CCCCC2CCCCC2)C(=N)N1CCCCC1CCCCC1` [Compound 11], the “stacked score activity, 100/MIC, A” value in assay [1] worked out at 25. Besides, in assay [2], the “stacked score activity, 100/MIC, S” value was 20. The “stacked score activity, 100/MIC, K” value in assay [3] was determined as 20. For the same molecule, the “stacked score activity, 100/MIC, E” value in assay [4] worked out at 20. The “stacked score activity, 100/MIC, E” value in assay [5] was 50. In assay [6], the “pathogens … at 5 ug/ml” value was “ESAPE”, the “pathogens … at 10 ug/ml” value is reported as “ESKAPE” and the “pathogens … at 25 ug/ml” value is reported as “ESKAPE”.

On to `CCCC[C@H]1CN(CCCC[C@H]2CNC(=N)N2CCCCC2CCCCC2)C(=N)N1CCc1ccc(-c2ccccc2)cc1` [Compound 12], for which, in assay [1], the “stacked score activity, 100/MIC, A” value is listed as 25. Also, in assay [2], the “stacked score activity, 100/MIC, S” value was 20. Moreover, the “stacked score activity, 100/MIC, K” value in assay [3] came out at 20. Besides, in assay [4], the “stacked score activity, 100/MIC, E” value turned out to be 20. In addition, in assay [5], the “stacked score activity, 100/MIC, E” value was 20. For the same molecule, in assay [6], the “pathogens … at 5 ug/ml” value is reported as “ESKAE”, the “pathogens … at 10 ug/ml” value is recorded as “ESKAPE” and the “pathogens … at 25 ug/ml” value is “ESKAPE”.

Take `CCCCCCCN1C(=N)N(CCCC[C@H]2CNC(=N)N2CCCCC2CCCCC2)C[C@H]1Cc1cccc2ccccc12` [Compound 13]: the “stacked score activity, 100/MIC, A” value in assay [1] was determined as 20. The “stacked score activity, 100/MIC, S” value in assay [2] was found to be 20. For the same molecule, in assay [3], the “stacked score activity, 100/MIC, K” value is 20. The “stacked score activity, 100/MIC, E” value in assay [4] came out at 20. The “stacked score activity, 100/MIC, E” value in assay [5] is recorded as 20. Moreover, in assay [6], the “pathogens … at 5 ug/ml” value is reported as “ESKAE”, the “pathogens … at 10 ug/ml” value was “ESKAE” and the “pathogens … at 25 ug/ml” value was “ESKAPE”.

`N=C1NC[C@H](CCCCN2C[C@@H](Cc3cccc4ccccc34)N(CCCCC3CCCCC3)C2=N)N1CCCCC1CCCCC1` [Compound 14]: the “stacked score activity, 100/MIC, A” value in assay [1] is given as 20. Moreover, in assay [2], the “stacked score activity, 100/MIC, S” value stood at 20. Besides, the “stacked score activity, 100/MIC, K” value in assay [3] is 20. For the same molecule, the “stacked score activity, 100/MIC, E” value in assay [4] was 20. For the same molecule, the “stacked score activity, 100/MIC, E” value in assay [5] is on record as 10. Besides, in assay [6], the “pathogens … at 5 ug/ml” value is “SKAE”, the “pathogens … at 10 ug/ml” value is on record as “ESKAE” and the “pathogens … at 25 ug/ml” value is “ESKAPE”.

For `N=C1NC[C@H](CCCCN2C[C@@H](Cc3cccc4ccccc34)N(CCc3ccc(-c4ccccc4)cc3)C2=N)N1CCCCC1CCCCC1` [Compound 15], the “stacked score activity, 100/MIC, A” value in assay [1] is 4. Besides, the “stacked score activity, 100/MIC, S” value in assay [2] is given as 20. In addition, the “stacked score activity, 100/MIC, K” value in assay [3] was 10. Further, the entries for the “stacked score activity, 100/MIC, E” value in assay [4] and in assay [5] were 20 and 10, respectively. Besides, in assay [6], the “pathogens … at 10 ug/ml” value is reported as “ESKE”. Besides, the “pathogens … at 25 ug/ml” value in assay [6] is given as “ESKAPE”.

As for `N=C1NC[C@H](CCCCN2C[C@H](CC3CCCCC3)N(CCCCC3CCCCC3)C2=N)N1CCCCC1CCCCC1` [Compound 17], the “stacked score activity, 100/MIC, A” value in assay [1] amounted to 20. For the same molecule, the “stacked score activity, 100/MIC, S” value in assay [2] worked out at 20. Moreover, in assay [3], the “stacked score activity, 100/MIC, K” value amounted to 20. In assay [4], the “stacked score activity, 100/MIC, E” value was 20. For the same molecule, the “stacked score activity, 100/MIC, E” value in assay [5] worked out at 20. In assay [6], the “pathogens … at 5 ug/ml” value is listed as “ESKAPE”, the “pathogens … at 10 ug/ml” value is “ESKAPE” and the “pathogens … at 25 ug/ml” value is “ESKAPE”.

For `N=C1NC[C@H](CCCCN2C[C@H](CC3CCCCC3)N(CCc3ccc(-c4ccccc4)cc3)C2=N)N1CCCCC1CCCCC1` [Compound 18], in assay [1], the “stacked score activity, 100/MIC, A” value was 20. For the same molecule, the “stacked score activity, 100/MIC, S” value in assay [2] came to 20. Moreover, the “stacked score activity, 100/MIC, K” value in assay [3] was 20. The “stacked score activity, 100/MIC, E” value in assay [4] came out at 20. In addition, in assay [5], the “stacked score activity, 100/MIC, E” value is 20. Besides, in assay [6], the “pathogens … at 5 ug/ml” value is “ESKAPE”, the “pathogens … at 10 ug/ml” value is listed as “ESKAPE” and the “pathogens … at 25 ug/ml” value is given as “ESKAPE”.
